Assays:
human TLR7 = target: T1, human TLR7 (Homo sapiens, UniProt Q9NYK1); assay: HEK-Blue hTLR7 SEAP reporter gene agonist assay; format: cell-based; details: HEK-Blue hTLR7 cells, 16 to 22 hours incubation
T1 construct: host or cells: HEK-Blue hTLR7 (HEK293-derived reporter cells)
T1 sequence (Q9NYK1 27-1049): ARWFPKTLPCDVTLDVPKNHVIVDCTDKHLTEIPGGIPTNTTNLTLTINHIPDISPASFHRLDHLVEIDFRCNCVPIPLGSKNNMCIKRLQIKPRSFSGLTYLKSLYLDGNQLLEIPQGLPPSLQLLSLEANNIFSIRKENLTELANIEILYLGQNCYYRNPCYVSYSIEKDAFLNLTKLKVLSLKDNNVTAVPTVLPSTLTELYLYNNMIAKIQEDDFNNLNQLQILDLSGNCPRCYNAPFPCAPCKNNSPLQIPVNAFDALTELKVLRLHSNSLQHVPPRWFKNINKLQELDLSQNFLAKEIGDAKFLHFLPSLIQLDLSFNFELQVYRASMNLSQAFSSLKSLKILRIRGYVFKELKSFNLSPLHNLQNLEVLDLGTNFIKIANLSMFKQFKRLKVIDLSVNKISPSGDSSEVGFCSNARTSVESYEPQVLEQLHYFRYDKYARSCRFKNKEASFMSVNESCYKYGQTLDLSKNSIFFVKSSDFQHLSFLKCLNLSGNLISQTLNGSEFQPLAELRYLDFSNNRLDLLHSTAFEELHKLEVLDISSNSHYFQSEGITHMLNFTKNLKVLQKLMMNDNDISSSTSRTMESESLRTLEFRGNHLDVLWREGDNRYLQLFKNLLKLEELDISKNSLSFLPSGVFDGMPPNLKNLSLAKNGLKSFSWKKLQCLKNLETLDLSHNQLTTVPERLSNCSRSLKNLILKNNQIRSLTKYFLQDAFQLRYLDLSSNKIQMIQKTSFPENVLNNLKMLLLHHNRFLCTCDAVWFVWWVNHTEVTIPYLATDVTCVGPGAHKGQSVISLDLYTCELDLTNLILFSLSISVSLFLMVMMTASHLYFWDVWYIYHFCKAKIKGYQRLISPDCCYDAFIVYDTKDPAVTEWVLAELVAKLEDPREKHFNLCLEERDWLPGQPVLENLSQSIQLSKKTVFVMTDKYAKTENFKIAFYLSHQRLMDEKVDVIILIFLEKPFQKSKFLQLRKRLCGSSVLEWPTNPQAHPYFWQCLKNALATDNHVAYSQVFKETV
Description: (§1) HEK-Blue™ cells that stably express human TLR7 or TLR8 are used to evaluate the agonistic activity of the compounds on TLR7 or TLR8, which is determined by the induction of the expression of SEAP reporter gene under the control of minimum IFN-β promoter fusion to 5×NF-κB and AP-1 binding sites. The assay is conducted as below:
(§2) HEK-Blue™ hTLR7 (Invivogen, 80,000 cells per well) or HEK-Blue™ hTLR8 (Invivogen, 60,000 cells per well) were added to the 96-well cell culture plate, followed by adding of the test compound. The final concentration of the test compound in the medium ranged from […], and was incubated for 16 to 22 hours. According to the manufacturer's instructions, the HEK-Blue assay reagent Quanti-blue (Invivogen) was used to measure SEAP levels in cell media. Optical density at 650 nm (OD650) was measured by Neo2 multifunction plate reader (Bio-tek). The half effective concentration (EC50) was calculated using GraphPad Prism.

human TLR8 = target: T2, human TLR8 (Homo sapiens, UniProt Q9NR97); assay: HEK-Blue hTLR8 SEAP reporter gene agonist assay; format: cell-based; details: HEK-Blue hTLR8 cells, 16 to 22 hours incubation
T2 construct: host or cells: HEK-Blue hTLR8 (HEK293-derived reporter cells)
T2 sequence (Q9NR97 27-1041): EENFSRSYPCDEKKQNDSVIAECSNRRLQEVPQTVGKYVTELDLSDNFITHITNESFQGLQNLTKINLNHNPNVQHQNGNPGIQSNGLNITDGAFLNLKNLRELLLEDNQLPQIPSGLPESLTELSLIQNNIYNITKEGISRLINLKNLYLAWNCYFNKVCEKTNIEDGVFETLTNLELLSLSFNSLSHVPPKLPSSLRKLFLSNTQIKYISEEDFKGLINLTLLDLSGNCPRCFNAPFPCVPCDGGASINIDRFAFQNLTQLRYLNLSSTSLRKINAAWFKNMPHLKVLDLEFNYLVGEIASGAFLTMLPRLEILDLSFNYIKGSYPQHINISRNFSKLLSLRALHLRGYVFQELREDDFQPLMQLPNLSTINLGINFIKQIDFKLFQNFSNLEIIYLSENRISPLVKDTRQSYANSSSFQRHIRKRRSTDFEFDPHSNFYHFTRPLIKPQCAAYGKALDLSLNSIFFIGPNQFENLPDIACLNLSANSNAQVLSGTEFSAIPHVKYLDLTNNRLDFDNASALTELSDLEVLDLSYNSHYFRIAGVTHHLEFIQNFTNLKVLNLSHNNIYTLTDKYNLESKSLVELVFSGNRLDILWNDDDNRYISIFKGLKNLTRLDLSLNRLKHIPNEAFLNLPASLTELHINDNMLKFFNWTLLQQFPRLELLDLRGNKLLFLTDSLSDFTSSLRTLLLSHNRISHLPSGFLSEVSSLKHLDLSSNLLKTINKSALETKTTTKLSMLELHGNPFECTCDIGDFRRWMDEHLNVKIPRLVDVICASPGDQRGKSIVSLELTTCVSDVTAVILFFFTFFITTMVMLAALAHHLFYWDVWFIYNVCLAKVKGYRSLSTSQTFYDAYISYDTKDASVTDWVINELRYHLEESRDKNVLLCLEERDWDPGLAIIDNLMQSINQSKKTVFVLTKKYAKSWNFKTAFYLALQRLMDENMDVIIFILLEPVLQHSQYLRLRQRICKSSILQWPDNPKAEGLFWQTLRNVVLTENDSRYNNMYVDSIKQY
Description: as §1, §2

SMILES	EC50 (human TLR7) [µM]	EC50 (human TLR8) [µM]
CCC[C@@H](CO)Nc1nc(N)nc2ccn(Cc3ccc(CN4CCCC4)cc3)c(=O)c12 [Compound I-127, (S)-2-amino-4-((1-hydroxypentan-2-yl)amino)-6-(4-(pyrrolidin-1-ylmethyl)benzyl)pyrido[4,3-d]pyrimidin-5(6H)-one]	0.044	0.003
CCCC(CCC)Nc1nc(N)nc2ccn(Cc3ccc(C(=O)N4CCNCC4)cc3OC)c(=O)c12 [Compound I-132, 2-amino-4-(heptan-4-ylamino)-6-(2-methoxy-4-(piperazine-1-carbonyl)benzyl)pyrido[4,3-d]pyrimidin-5(6H)-one]	0.084	0.66
CCC[C@@H](CC)Nc1nc(N)nc2ccn(Cc3ccc(CN4CCCC4)cc3)c(=O)c12 [Compound I-138, (R)-2-amino-4-(hexan-3-ylamino)-6-(4-(pyrrolidin-1-ylmethyl)benzyl)pyrido[4,3-d]pyrimidin-5(6H)-one]	0.058	0.097
CCC[C@@H](C)Nc1nc(N)nc2ccn(Cc3ccc(CN(CCO)CCO)cc3)c(=O)c12 [Compound I-141, (R)-2-amino-6-(4-((bis(2-hydroxyethyl)amino)methyl)benzyl)-4-(pentan-2-ylamino)pyrido[4,3-d]pyrimidin-5(6H)-one]	0.05	0.02
CCC[C@@H](CCO)Nc1nc(N)nc2ccn(Cc3ccc(CN4CC5(COC5)C4)cc3)c(=O)c12 [Compound I-142, (S)-6-(4-((2-oxa-6-azaspiro[3.3]heptan-6-yl)methyl)benzyl)-2-amino-4-((1-hydroxyhexan-3-yl)amino)pyrido[4,3-d]pyrimidin-5(6H)-one]	0.07	0.04
CCC[C@@H](C)Nc1nc(N)nc2ccn(Cc3ccc(CN4CCCC4)cc3Cl)c(=O)c12 [Compound I-152, (R)-2-amino-6-(2-chloro-4-(pyrrolidin-1-ylmethyl)benzyl)-4-(pentan-2-ylamino)pyrido[4,3-d]pyrimidin-5(6H)-one]	0.08	0.11
CCC[C@@H](C)Nc1nc(N)nc2ccn(Cc3ccc(OCCNC)nc3)c(=O)c12 [Compound I-153, (R)-2-amino-6-((6-(2-(methylamino)ethoxy)pyridin-3-yl)methyl)-4-(pentan-2-ylamino)pyrido[4,3-d]pyrimidin-5(6H)-one]	0.09	0.04

Now from value to compound:

EC50 (human TLR7) [µM]	EC50 (human TLR8) [µM]	SMILES
0.03	0.02	CCC[C@@H](C)Nc1nc(N)nc2ccn(Cc3ccc(CN(C)CCO)cc3)c(=O)c12 [Compound I-139, (R)-2-amino-6-(4-(((2-hydroxyethyl)(methyl)amino)methyl)benzyl)-4-(pentan-2-ylamino)pyrido[4,3-d]pyrimidin-5(6H)-one]
0.04	0.04	CCC[C@@H](C)Nc1nc(N)nc2ccn(Cc3ccc(CN4CCN(CCO)CC4)cc3)c(=O)c12 [Compound I-148, (R)-2-amino-6-(4-((4-(2-hydroxyethyl)piperazin-1-yl)methyl)benzyl)-4-(pentan-2-ylamino)pyrido[4,3-d]pyrimidin-5(6H)-one]
0.04	0.03	CCC[C@@H](C)Nc1nc(N)nc2ccn(Cc3ccc(CN4CC5(COC5)C4)cc3)c(=O)c12 [Compound I-150, (R)-6-(4-((2-oxa-6-azaspiro[3.3]heptan-6-yl)methyl)benzyl)-2-amino-4-(pentan-2-ylamino)pyrido[4,3-d]pyrimidin-5(6H)-one]
0.08	0.03	CCC[C@@H](C)Nc1nc(N)nc2ccn(Cc3ccc(C(=O)N4CC5CC(C4)N5)cc3)c(=O)c12 [Compound I-151, 6-(4-(3,6-diazabicyclo[3.1.1]heptane-3-carbonyl)benzyl)-2-amino-4-(((R)-pentan-2-yl)amino)pyrido[4,3-d]pyrimidin-5(6H)-one]
0.03	0.04	CCC[C@@H](C)Nc1nc(N)nc2ccn(Cc3ccc(CN4CCCC4)cc3OC)c(=O)c12 [Compound I-154, (R)-2-amino-6-(2-methoxy-4-(pyrrolidin-1-ylmethyl)benzyl)-4-(pentan-2-ylamino)pyrido[4,3-d]pyrimidin-5(6H)-one]
